Data from PMC8068801, “Novel Benzenesulfonate Scaffolds with a High Anticancer Activity and G2/M Cell Cycle Arrest” (Cancers, 2021).

Columns and labels:
purified bovine tubulin = test: In vitro tubulin polymerization assay; format: biochemical; conditions: 10 µM; turbidity at 350 nm, maximum absorbance
Protocol: The effect of small-molecule compounds on tubulin polymerization was monitored using an In Vitro Tubulin Polymerization Kit (≥99% Pure Bovine Tubulin) (Millipore) following the manufacturer’s protocol. Briefly, the tested compounds, BS1 and BS4, as well as reference drugs, paclitaxel (enhancer of polymerization) and nocodazole (inhibitor of polymerization) at a concentration of 10 µM were mixed with purified bovine tubulin (60 μM) and polymerization buffer with GTP (1 mM) on 96-well plate on ice. Then, the plate was transferred into the multi-plate reader (Synergy 4) chamber (heated to 37 °C) and measured the turbidity variation every 30 s at 350 nm during 90 min. The experiments were performed three times.

K562 cells [1] = test: Autophagy assay (Muse LC3-antibody kit), K562; format: cell-based, human; conditions: K562, 0.5 μM, vs control
Protocol: (§1) The K562 and U-251 cells were seeded in 96-well plates (Nunc) and incubated at 37 °C for 24 h. The density of the cells was 20,000 cells per well (for the 24 h assay) and 10,000 per well (for the 48 h assay). […] After treatment, the assays were performed using a Muse™ Autophagy LC3-antibody based kit (Millipore) according to the manufacturer’s instructions. Briefly, the cells were collected, washed with cold HPBS and centrifuged at 300 g for 5 min. […] The samples were incubated on ice for 30 min in the dark. After incubation, the cells were centrifuged and resuspended in 200 μL of a 1X Assay Buffer. Then, the samples were directly processed to analyze the autophagy induction using a Muse Cell Analyzer. The autophagy induction ratio was calculated on the basis of the ratio between the target sample fluorescence versus the control sample. The experiments were performed at least three times.

K562 cells [2] = test: qRT-PCR mRNA expression, K562; format: cell-based, human; conditions: 24 h
Protocol: (§2) The total RNA was isolated from the K562 and U-251 cells using the TRIzol Reagent procedure (Ambion, Austin, TX, USA). Reverse transcription was performed with 5 μg of total RNA using a GoScript™ Reverse Transcriptase kit (Promega) and Oligo(dT)23 Primers (Sigma). Real-time PCR was performed using a CTX96 Touch™ Real-Time PCR Detection System (Biorad, Hercules, CA, USA) in a 20 μL reaction volume. The reaction consisted of SsoAdvanced™ Universal SYBR® Green Supermix (Biorad), a specific primer pair mix (0.5 μM each) and 1 μL of cDNA. The reaction was performed under the following conditions: initial denaturation at 95 °C for 30 s; followed by 40 denaturation cycles at 95 °C, 15 s; annealing (primer-specific temperature for 30 s) and extension at 72 °C for 60 s. The obtained results were analyzed based on a comparison of the expression of the target genes to the reference gene, GAPDH, using the 2^−ΔΔCT method. The experiments were performed at least four times.

U-251 cells [3] = test: qRT-PCR mRNA expression, U-251; format: cell-based, human; conditions: for Increase in the GADD45α mRNA expression / p62 mRNA expression: 24 h; for LC3 mRNA expression: U-251, 24 h
Protocol: as §2

K562 cells [4] = test: Immunoblotting with densitometry, K562; format: cell-based, human; conditions: 24 h; for PARP/Reference 89 kDa, densitometric intensity ratio / caspase-9/Reference 37-35 kDa, densitometric intensity ratio: control 0.167; for AIF/Reference 67 kDa, densitometric intensity ratio / BID/Reference 22 kDa, densitometric intensity ratio / PARP/Reference 116 kDa, densitometric intensity ratio / caspase-9/Reference 47 kDa, densitometric intensity ratio / cdc2/Reference 34 kDa, densitometric intensity ratio / cyclin E1/Reference 48 kDa, densitometric intensity ratio: control 1.000
Protocol: The K562 and U-251 cells were seeded in 3 cm Petri dishes (Nunc) at a density of 500,000 cells per well and incubated overnight. […] Next, the cell pellets were resuspended in an RIPA buffer containing a Halt Protease Inhibitor Cocktail and a Halt Phosphatase Inhibitor Cocktail along with 0.5 M EDTA (all from Thermo Scientific, Waltham, MA, USA) and lysed on ice for 20 min. Then, the obtained lysates were sonicated and centrifuged at 10,000 rpm for 10 min at 4 °C. The supernatants were collected for further analysis. The protein concentration was measured using a Micro BCA™ Protein Assay Kit (Thermo Scientific) according to the manufacturer’s instructions. Equal amounts of the proteins (16 μg) were electrophoresed on SDS-Page gels and transferred onto nitrocellulose membranes. The membranes were blocked in 5% non-fat milk prepared in TPBS (PBS containing 0.1% Tween-20) for 1 h. After blocking, the membranes were incubated with the specific primary antibodies (all from Cell Signaling) at a 1:1000 dilution—cyclin E, cdc2, PARP, AIF, BID, p53, p21^Waf1/Cip1, HIF-1α, cathepsin B and caspase-9—and at a 1:2000 dilution for the reference proteins—vinculin, β-actin and GAPDH—overnight at 4 °C. The next day, the membranes were washed in TPBS and incubated with horseradish peroxidase (HRP)-conjugated secondary antibodies for 1 h at room temperature. Lastly, the membranes were washed in TPBS and incubated with a SuperSignal™ West Pico Chemiluminescent Substrate (Thermo Scientific). The chemiluminescence signals were captured using a ChemiDoc™ XRS + System (Biorad). The experiments were performed at least four to five times. The densitometric analysis was conducted using ImageJ software (Wayne Rasband, National Institutes of Health, Bethesda, MD, USA).
The band intensity of tested proteins (p53, cyclin E1, cdc2, p21, HIF-1α, cathepsin b, PARP, caspase-9, BID, AIF) were analyzed by densitometry readings/intensity ratio, using ImageJ software (NIH) and were normalized to the corresponding reference proteins (GAPDH, vinculin or β-actin) value.
The densitometric readings/intensity ratio data from four/five independent experiments (compared to control): […]
p53/ Refer- p21/ Refer- cdc2/ Refer- Cyclin E1/ HIF-1α/ Cathepsin b/Reference ence ence ence Reference Reference
PARP/Reference BID/ Reference Caspase-9/Reference […]
cdc2/ Reference cyclin E1/ Reference AIF/ Reference BID/ Reference

U-251 cells [5] = test: Autophagy assay (Muse LC3-antibody kit), U-251; format: cell-based, human; conditions: U-251, 4 μM, 24 h; vs control
Protocol: as §1

COc1ccccc1/C=C/c1nc(OS(=O)(=O)c2ccc3c(c2)OCO3)c2ccccc2n1 [BS1, 2-((E)-2-(2-methoxyphenyl)ethenyl)quinazolin-4-yl 1,3-benzodioxole-5-sulfonate]
Enhancement of tubulin polymerization, increase compared to control (purified bovine tubulin): about 47%
Autophagy induction ratio (K562 cells [1]; 24 h): 2.26
Autophagy induction ratio (K562 cells [1]; 48 h): 1.96
Decrease in the IDH1 mRNA level (K562 cells [2]; K562, 0.5 μM): ~2.4 fold
p62 mRNA level (K562 cells [2]; K562, 0.5 μM): about three-fold
Increase in the GADD45α mRNA expression (U-251 cells [3]; U-251, 4 µM): ~1.5 fold
p62 mRNA expression (U-251 cells [3]; U-251, 4 µM): almost four-fold increase
LC3 mRNA expression (U-251 cells [3]): more than two-fold increase
Cleavage caspase-9 proteins (Western blot) (K562 cells [4]; K562, 0.35 µM): more than six-fold increase
PARP/Reference 89 kDa, densitometric intensity ratio (K562 cells [4]; K562, 0.35µM): 2.111
caspase-9/Reference 37-35 kDa, densitometric intensity ratio (K562 cells [4]; K562, 0.35µM): 1.287
AIF/Reference 67 kDa, densitometric intensity ratio (K562 cells [4]; K562, 0.35µM): 3.809
BID/Reference 22 kDa, densitometric intensity ratio (K562 cells [4]; K562, 0.35µM): 1.049
PARP/Reference 116 kDa, densitometric intensity ratio (K562 cells [4]; K562, 0.35µM): 1.793
caspase-9/Reference 47 kDa, densitometric intensity ratio (K562 cells [4]; K562, 0.35µM): 1.109
cdc2/Reference 34 kDa, densitometric intensity ratio (K562 cells [4]; K562, 0.35µM): 1.234
cyclin E1/Reference 48 kDa, densitometric intensity ratio (K562 cells [4]; K562, 0.35µM): 1.273
PARP/Reference 89 kDa, densitometric intensity ratio (K562 cells [4]; K562, 0.5µM): 2.156
caspase-9/Reference 37-35 kDa, densitometric intensity ratio (K562 cells [4]; K562, 0.5µM): 1.368
AIF/Reference 67 kDa, densitometric intensity ratio (K562 cells [4]; K562, 0.5µM): 2.737
BID/Reference 22 kDa, densitometric intensity ratio (K562 cells [4]; K562, 0.5µM): 0.695
PARP/Reference 116 kDa, densitometric intensity ratio (K562 cells [4]; K562, 0.5µM): 1.646
caspase-9/Reference 47 kDa, densitometric intensity ratio (K562 cells [4]; K562, 0.5µM): 1.627
cdc2/Reference 34 kDa, densitometric intensity ratio (K562 cells [4]; K562, 0.5µM): 1.122
cyclin E1/Reference 48 kDa, densitometric intensity ratio (K562 cells [4]; K562, 0.5µM): 1.110

COc1ccccc1/C=C/c1nc(OS(=O)(=O)c2ccc(C)cc2)c2ccccc2n1 [BS4, 2-((E)-2-(2-methoxyphenyl)ethenyl)quinazolin-4-yl 4-methylbenzenesulfonate]
Autophagy induction ratio (U-251 cells [5]): 5.03
LC3 transcript levels (K562 cells [2]; K562, 0.35 µM): decreased
Decrease in the IDH1 mRNA level (K562 cells [2]; K562, 0.5 µM and 0.35 µM): about a two-fold decrease
GADD45α mRNA expression (K562 cells [2]; K562, 0.5 μM): almost two-fold decrease
Increase in the GADD45α mRNA expression (U-251 cells [3]; U-251, 4 µM): ~1.5 fold
p62 mRNA expression (U-251 cells [3]; U-251, 6 μM): almost four-fold increase
LC3 mRNA expression (U-251 cells [3]): more than two-fold increase

COc1ccccc1/C=C/c1nc(OS(=O)(=O)c2cc3c(cc2Br)OCO3)c2ccccc2n1 [BS2, 2-((E)-2-(2-methoxyphenyl)ethenyl)quinazolin-4-yl 6-bromo-1,3-benzodioxole-5-sulfonate]
PARP/Reference 89 kDa, densitometric intensity ratio (K562 cells [4]; K562, 0.35µM): 0.494
caspase-9/Reference 37-35 kDa, densitometric intensity ratio (K562 cells [4]; K562, 0.35µM): 1.268
AIF/Reference 67 kDa, densitometric intensity ratio (K562 cells [4]; K562, 0.35µM): 4.141
BID/Reference 22 kDa, densitometric intensity ratio (K562 cells [4]; K562, 0.35µM): 0.965
PARP/Reference 116 kDa, densitometric intensity ratio (K562 cells [4]; K562, 0.35µM): 1.556
caspase-9/Reference 47 kDa, densitometric intensity ratio (K562 cells [4]; K562, 0.35µM): 1.108
cdc2/Reference 34 kDa, densitometric intensity ratio (K562 cells [4]; K562, 0.35µM): 1.338
cyclin E1/Reference 48 kDa, densitometric intensity ratio (K562 cells [4]; K562, 0.35µM): 1.640
PARP/Reference 89 kDa, densitometric intensity ratio (K562 cells [4]; K562, 0.5µM): 0.811
caspase-9/Reference 37-35 kDa, densitometric intensity ratio (K562 cells [4]; K562, 0.5µM): 1.113
AIF/Reference 67 kDa, densitometric intensity ratio (K562 cells [4]; K562, 0.5µM): 4.160
BID/Reference 22 kDa, densitometric intensity ratio (K562 cells [4]; K562, 0.5µM): 0.762
PARP/Reference 116 kDa, densitometric intensity ratio (K562 cells [4]; K562, 0.5µM): 1.665
caspase-9/Reference 47 kDa, densitometric intensity ratio (K562 cells [4]; K562, 0.5µM): 1.104
cdc2/Reference 34 kDa, densitometric intensity ratio (K562 cells [4]; K562, 0.5µM): 1.206
cyclin E1/Reference 48 kDa, densitometric intensity ratio (K562 cells [4]; K562, 0.5µM): 1.270
